Assays:
[1] = system: Hsp26 tTa, tRe Msl-1^Mpu on the 2nd chromosome; assay: Recombinant chromosome experiments: parents raised on supplement, progeny on normal food, adults by sex (25, 18 or 29° C.); assay type: in vivo, Drosophila melanogaster
Experimental: (§1) 40-45 young females and 20-25 young males raised at 25° C. upon food with the indicated tetracycline supplement were allowed to mate, then transferred to normal (tetracycline-free) food after 3-4 days. These flies were transferred to fresh vials of normal food every day for 12 days, then removed on the 13th day. All the vials were incubated at 25° C. while the progeny developed. The numbers of male and female progeny emerging as adults in each vial were recorded.
(§2) A standard range of additive concentrations were used in the following experiments (0.05-20 μg/ml). […] (=“not done”)
(§3) All the preceding experiments were performed at 25° C., the standard temperature for Drosophila culture. However, the insects in the wild would clearly be exposed to varying temperatures, so we investigated the extent to which the efficiency of the system is affected by temperature. As with the recombinant chromosome experiments, 40-45 young virgin females and 20-25 young males raised at 25° C. upon food with the indicated tetracycline supplement were allowed to mate, then transferred to normal (tetracycline-free) food after 3-4 days. These flies were transferred to fresh vials of normal food every day. The numbers of male and female progeny emerging as adults in each vial were recorded. These experiments were performed at either 18° C. or 29° C.

[2] = system: Hsp26 tTa, tRe Msl-2^Nopu on the 2nd chromosome; assay: as above; assay type: in vivo, Drosophila melanogaster
Experimental: as §1, §2, §3

[3] = system: Sxl^pe-tTA, tRE-Msl-2^Nopu on the X chromosome; assay: as above; assay type: in vivo, Drosophila melanogaster; conditions: for Female progeny per daily vial / Female progeny Total / Male progeny Total: 25° C.; for Female progeny per daily vial: Day 1-12 on tetracycline-free food; for Female progeny Total / Male progeny Total: Day 1-12 total
Experimental: as §1, §2, §3

[4] = system: Yp3 tTa, tRe Msl-2^Nopu on the 2nd chromosome; assay: as above; assay type: in vivo, Drosophila melanogaster
Experimental: as §1, §2, §3

[5] = system: Yp3 tTa, tRe Msl-1^Mpu on the 2nd chromosome; assay: as above; assay type: in vivo, Drosophila melanogaster
Experimental: as §1
Since there is no meiotic recombination in Drosophila melanogaster males, any of these recombinant chromosomes could be used in a genetic sexing or insect control program, if required.
as §2, §3

[6] = system: (Male) Sxlp^e tTa^(A) × tRe lacZ^(III) (Female); assay: Reporter crosses at 25° C., embryos stained for lacZ
[7] = system: Hsp26 tTa^(A) × tRe Msl-2^Nopu(A, B,); assay: Single chromosome crosses at 25° C., adult progeny by sex
[8] = parents raised on tetracycline 0.1 μg/ml, 18° C.
[9] = parents raised on tetracycline 0.1 μg/ml, 29° C.
[10] = parents raised on tetracycline 1 μg/ml, 18° C.
[11] = parents raised on tetracycline 1 μg/ml, 29° C.
[12] = parents raised on tetracycline 5 μg/ml, 18° C.
[13] = parents raised on tetracycline 5 μg/ml, 29° C.
[14] = parents raised on Tet. 0.1 μg/ml
[15] = parents raised on Tet. 20 μg/ml
[16] = parents raised on Tet. 100 μg/ml
[17] = parents raised on Tet. 500 μg/ml
[18] = parents raised on Tet. 1000 μg/ml
[19] = parents raised on Tet. 2000 μg/ml

Compound: CN(C)[C@@H]1C(O)=C(C(N)=O)C(=O)[C@@]2(O)C(O)=C3C(=O)c4c(O)cccc4[C@@](C)(O)[C@H]3C[C@@H]12 [Tetracycline, tetracycline]
- Female progeny emerging as adults [1, 8]: 6
- Male progeny emerging as adults [1, 8]: 628
- Female progeny emerging as adults [1, 9]: 0
- Male progeny emerging as adults [1, 9]: 733
- Female progeny emerging as adults [1, 10]: 3
- Male progeny emerging as adults [1, 10]: 614
- Female progeny emerging as adults [1, 11]: 0
- Male progeny emerging as adults [1, 11]: 776
- Female progeny emerging as adults [1, 12]: 5
- Male progeny emerging as adults [1, 12]: 712
- Female progeny emerging as adults [1, 13]: 0
- Male progeny emerging as adults [1, 13]: 728
- Female progeny emerging as adults [2, 8]: 8
- Male progeny emerging as adults [2, 8]: 832
- Female progeny emerging as adults [2, 9]: 0
- Male progeny emerging as adults [2, 9]: 696
- Female progeny emerging as adults [2, 10]: 7
- Male progeny emerging as adults [2, 10]: 879
- Female progeny emerging as adults [2, 11]: 0
- Male progeny emerging as adults [2, 11]: 658
- Female progeny emerging as adults [2, 12]: 4
- Male progeny emerging as adults [2, 12]: 818
- Female progeny emerging as adults [2, 13]: 0
- Male progeny emerging as adults [2, 13]: 711
- Female progeny per daily vial [3, 14]: 0
- Female progeny Total [3, 14]: 0
- Male progeny Total [3, 14]: 1464
- Female progeny per daily vial ([3]; parents raised on Tet. 1 μg/ml): 0
- Female progeny Total ([3]; parents raised on Tet. 1 μg/ml): 0
- Male progeny Total ([3]; parents raised on Tet. 1 μg/ml): 1527
- Female progeny per daily vial ([3]; parents raised on Tet. 5 μg/ml): 0
- Female progeny Total ([3]; parents raised on Tet. 5 μg/ml): 0
- Male progeny Total ([3]; parents raised on Tet. 5 μg/ml): 1535
- Female progeny per daily vial [3, 15]: 0
- Female progeny Total [3, 15]: 0
- Male progeny Total [3, 15]: 1243
- Female progeny per daily vial [3, 16]: 0
- Female progeny Total [3, 16]: 0
- Male progeny Total [3, 16]: 1483
- Female progeny Total [3, 17]: 2
- Male progeny Total [3, 17]: 1625
- Female progeny Total [3, 18]: 29
- Male progeny Total [3, 18]: 1402
- Female progeny Total [3, 19]: 44
- Male progeny Total [3, 19]: 1543
- Female progeny emerging as adults [3, 8]: 6
- Male progeny emerging as adults [3, 8]: 695
- Female progeny emerging as adults [3, 9]: 0
- Male progeny emerging as adults [3, 9]: 682
- Female progeny emerging as adults [3, 10]: 8
- Male progeny emerging as adults [3, 10]: 816
- Female progeny emerging as adults [3, 11]: 0
- Male progeny emerging as adults [3, 11]: 804
- Female progeny emerging as adults [3, 12]: 8
- Male progeny emerging as adults [3, 12]: 785
- Female progeny emerging as adults [3, 13]: 0
- Male progeny emerging as adults [3, 13]: 648
- Female progeny emerging as adults [4, 8]: 8
- Male progeny emerging as adults [4, 8]: 1152
- Female progeny emerging as adults [4, 9]: 0
- Male progeny emerging as adults [4, 9]: 765
- Female progeny emerging as adults [4, 10]: 12
- Male progeny emerging as adults [4, 10]: 1122
- Female progeny emerging as adults [4, 11]: 0
- Male progeny emerging as adults [4, 11]: 702
- Female progeny emerging as adults [4, 12]: 3
- Male progeny emerging as adults [4, 12]: 1225
- Female progeny emerging as adults [4, 13]: 0
- Male progeny emerging as adults [4, 13]: 773
- escapers ([5]; even at low (parental) tetracycline concentrations): < 1%
- Female progeny emerging as adults [5, 8]: 5
- Male progeny emerging as adults [5, 8]: 1303
- Female progeny emerging as adults [5, 9]: 0
- Male progeny emerging as adults [5, 9]: 799
- Female progeny emerging as adults [5, 10]: 14
- Male progeny emerging as adults [5, 10]: 1218
- Female progeny emerging as adults [5, 11]: 0
- Male progeny emerging as adults [5, 11]: 749
- Female progeny emerging as adults [5, 12]: 7
- Male progeny emerging as adults [5, 12]: 1386
- Female progeny emerging as adults [5, 13]: 0
- Male progeny emerging as adults [5, 13]: 744
- LacZ negative Total ([6]; Tetracycline 0.1 μg/ml in food): 518
- LacZ positive Total ([6]; Tetracycline 0.1 μg/ml in food): 0
- LacZ negative Total ([6]; Tetracycline 1 μg/ml in food): 707
- LacZ positive Total ([6]; Tetracycline 1 μg/ml in food): 0
- LacZ negative Total ([6]; Tetracycline 5 μg/ml in food): 702
- LacZ positive Total ([6]; Tetracycline 5 μg/ml in food): 0
- Female progeny Total ([7]; Tetracycline 0.1 μg/ml in food): 159
- Male progeny Total ([7]; Tetracycline 0.1 μg/ml in food): 159
- Female progeny Total ([7]; Tetracycline 1 μg/ml in food): 135
- Male progeny Total ([7]; Tetracycline 1 μg/ml in food): 122
- Female progeny Total ([7]; Tetracycline 5 μg/ml in food): 124
- Male progeny Total ([7]; Tetracycline 5 μg/ml in food): 120
